Test results as given in patent publication US12559471B2, “1,5-dihydro-2,4-benzodiazepine-3-one derivative and application thereof” (JIANGSU NHWA PHARMACEUTICAL CO., LTD, priority 2020, dated 2026).
“And” between values parts separate entries of the source, which are not always exact repeats. Equal values may be shown once.

How the values were obtained:
5-HT2B receptor = 5-HT2B receptor (Homo sapiens (Human), UniProt P41595); conditions: background statement, no significant affinity; cited from earlier work
muscarinic receptor = conditions: background statement, no significant affinity; cited from earlier work
calcium channel receptor = conditions: background statement, no significant affinity; cited from earlier work
[1] = test system: MPTP+MK-801-induced Parkinson's disease mouse model; experiment: MPTP+MK-801-induced Parkinson's disease mouse model (anti-PDP efficacy model); format: in vivo; conditions: ip, mice, intraperitoneal, read-out: PDP efficacy (high activity) ED50
Protocol: 1.1 Effect on MPTP+MK-801-induced Parkinson's disease mouse model (anti-PDP efficacy model)
Animals were injected with different doses of MPTP(1-methyl-4-phenyl-1,2,3,6-tetrahydropyridine) intraperitoneally every morning for 5 consecutive days. […] Then, after an interval of 0.25 h, the mice were placed into an autonomous activity test box (a black polyethylene box with the specification of 29 cm×29 cm×30 cm) for video recording for 20 min. Video analysis was performed after the video recording to evaluate the activity of the mice.

[2] = Investigation of sedation side effects (autonomic activity, movement distance); format: in vivo, mice; conditions: mouse, in vivo, ip; C57BL/6j mice, intraperitoneal, 45 min after administration
Protocol: 1.3 Investigation of Sedation Side Effects (Anti-Sedation Model)
According to different doses of each group, solutions at different concentrations were separately formulated for intraperitoneal injection, with the final administration volume of 10 mL/kg.
The movement at 0-20 min was recorded on video, and the movement distance in 20 min was analyzed by Top Scan 3.00 software. The inhibition rate of each group relative to the blank group after the administration were calculated, and the sedation effects of the compounds were comprehensively evaluated in combination with a statistical conclusion.

[3] = test system: MK-801-induced high activity behavior of mice; experiment: Dizocilpine (MK-801)-induced high activity test in mice; format: in vivo; conditions: Mus musculus, 1 h, intragastric, MK-801 0.3 mg/kg i.p., 60 min, read-out: ED50 for inhibiting the MK-801-induced high activity behavior
Protocol: 2. Dizocilpine (MK-801)-Induced High Activity Test in Mice 2.1 Test Method
Mice were stratified according to body weight and then randomly divided into a model control group, a blank control group and drug administration groups. After the administration of a test substance (or a control substance), the mice were placed into an autonomous activity test box (a black polyethylene box with the specification of 29 cm×29 cm×30 cm) for adaptation, and injected with MK-801 at 0.3 mg/kg intraperitoneally 1 h after the intragastric administration. The mice were then placed into the autonomous activity test box for video recording for 60 min. Video analysis was performed after the video recording to evaluate the activity of the mice.

[4] = MPTP+APO-induced climbing behavior in male mice (DA motor deterioration model); format: in vivo; conditions: mouse, in vivo, ip; male mice, intraperitoneal; read-out: DA side effects (climbing motor deterioration) ED50
Protocol: (§1) 1.2 Effect on MPTP+APO-induced climbing behavior in male mice (DA motor deterioration model) Animals were injected with different doses of MPTP intraperitoneally every morning for 5 consecutive days. […] After the subcutaneous injection, animals were immediately placed into a climbing cage (self-made, a cylindrical cage with the diameter of 13 cm and the height of 15 cm, made of a stainless steel wire mesh with the diameter of about 0.1 cm, the bottom of which is a semitransparent polyethylene plate, and the cage cover of which is a stainless steel cage cover), and the behaviors of animals at minutes 10-11, 20-21 and 30-31 after the APO injection was observed and scored.
(§2) Scoring criteria: four feet on the floor scored 0; two forepaws on the cage scored 1; and four feet on the cage scored 2.

[5] = test system: MPTP+APO-induced climbing behavior in male mice; experiment: as above; format: in vivo; conditions: male mice, intraperitoneal
Protocol: as §1, §2

[6] = test system: DOI-induced PPI impairment in rats; experiment: DOI-induced PPI impairment test in rats (intervention test); format: in vivo; conditions: DOI 0.5 mg/kg
Protocol: 3. DOI ((f)-1-(2,5-dimethoxy-4-iodophenyl)-2-aminopropane hydrochloride or (f)-2,5-dimethoxy-4-iodoamphetamine hydrochloride) induced PPI impairment effect test in rats
30 min after the intragastric administration of a drug (or a vehicle) and 30 min after the subcutaneous injection of DOI at 0.5 mg/kg at the neck, namely 60 min after the intragastric administration, the rats were placed into a startle reflex test box for testing.
(§3) The test was performed according to literature and preliminary experiments, and the specific process was as follows: first an adaptation period of 5 min was given (62 dB background sound), and 5 separate startle reflex stimuli were given after the adaptation period (blockl, results not included in the analysis to reduce the initial response of the animals to a plateau level), followed by 4 different types of tests (block2) presented in a pseudo-random manner, namely: 1) startle reflex stimulus alone (pulse-alone, 120 dB, lasting 20 ms); 2) prepulse stimulus alone 13 dB above the background sound (prepulse-alone, 75 dB, lasting 20 ms); 3) prepulse stimulus in combination with startle reflex stimulus, each lasting 20 ms, with an interval of 100 ms; and 4) no stimulus in which only the background sound was given (no stimulus). Each trial was performed 5 times, with an average interval of 20 s (10-30 s) between trials.
The response amplitude of the startle reflex stimulus alone or the prepulse stimulus in combination with startle reflex stimulus was expressed as the AVG (instrument-specific unit) value, which indirectly reflects the size of the flinching response of the rat body. Evaluation index: PPI %=(1−response amplitude of prepulse stimulus in combination with startle reflex stimulus/response amplitude of startle reflex stimulus alone)×100. The higher the value is, the greater the degree of the inhibition is.

[7] = test system: DOI-induced head shaking behavior of mice; experiment: DOI-induced head shaking (head thrust) test in mice; format: in vivo; conditions: Mus musculus, intragastric, DOI 1 mg/kg i.p., 0-20 min, read-out: ED50 for inhibiting the DOI-induced head shaking behavior
Protocol: 1. Head Thrust Test in Mice
Mice were stratified according to body weight and then randomly divided into a model control group, a blank control group and drug administration groups. 1 h after the intragastric administration of a vehicle or a drug, the animals were placed in a beaker (with the diameter of 13 cm and the height of 19 cm) paved with fresh padding, and were injected with a modeling drug DOI ((±)-1-(2,5-dimethoxy-4-iodophenyl)-2-aminopropane hydrochloride or (±)-2,5-dimethoxy-4-iodoamphetamine hydrochloride) intraperitoneally at a dose of 1 mg/kg. The head shaking times of the mice during the 0-20 min after the intraperitoneal injection of DOI were recorded. The head shaking behavior is defined as a rapid rotational twitching or wet dog-like shaking of the mouse head, which is distinguished from normal grooming or exploring behavior.

adrenergic receptor = conditions: background statement, no significant affinity; cited from earlier work
PPI in normal rats = PPI in normal rats (dosing test, normal saline instead of DOI); format: in vivo; conditions: normal saline
Protocol: as §3
The response amplitude of the startle reflex stimulus alone or the prepulse stimulus in combination with startle reflex stimulus was expressed as the AVG (instrument-specific unit) value, which indirectly reflects the size of the flinching response of the rat body. Evaluation index: PPI %=(1−response amplitude of prepulse stimulus in combination with startle reflex stimulus/response amplitude of startle reflex stimulus alone)×100. The higher the value is, the greater the degree of the inhibition is. Dosing Test:
The DOI at 0.5 mg/kg administered to animals in the above groups was changed to normal saline (NS), and other operations including administration and testing were the same as those in the intervention test.

Chain of 5-HT2B receptor (P41595 whole entry): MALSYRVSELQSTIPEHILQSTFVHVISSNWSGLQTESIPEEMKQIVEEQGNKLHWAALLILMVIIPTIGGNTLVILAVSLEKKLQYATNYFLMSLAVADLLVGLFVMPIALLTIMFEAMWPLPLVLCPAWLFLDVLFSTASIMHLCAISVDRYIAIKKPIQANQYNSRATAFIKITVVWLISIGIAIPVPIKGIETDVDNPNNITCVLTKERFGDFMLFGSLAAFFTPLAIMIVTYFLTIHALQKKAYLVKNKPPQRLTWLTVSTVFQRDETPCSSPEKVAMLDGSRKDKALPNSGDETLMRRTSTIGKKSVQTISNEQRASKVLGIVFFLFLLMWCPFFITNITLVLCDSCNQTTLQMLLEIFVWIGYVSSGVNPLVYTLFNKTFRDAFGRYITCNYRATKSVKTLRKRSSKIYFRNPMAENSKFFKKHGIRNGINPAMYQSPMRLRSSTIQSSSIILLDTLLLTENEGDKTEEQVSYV

SMILES: CC(C)COc1ccc(CNC(=O)N(Cc2ccc(F)cc2)C2CCN(C)CC2)cc1 [Pimavanserin, reference compound]
- Ki (5-HT2B receptor): > 300 nM
- Ki (muscarinic receptor): > 300 nM
- Ki (calcium channel receptor): > 300 nM
- ED50 [1]: 0.37 mg/kg
- ED50 at 45 min [2]: 6.79 mg/kg
- ED50 [3]: 3.29 mg/kg
- ED50 [4]: > 30 mg/kg
- DA side effects (climbing motor deterioration) ED50 [5]: >30 mg/kg
- reversal of DOI-induced PPI impairment ([6]; 3 mg/kg, P<0.05): significantly reverse
- PPI %, MEAN ([6]; 1 mg/kg intragastric): 28.93%
- PPI %, individual animal ([6]; 1 mg/kg intragastric): 30.19% and 7.34% and 12.78% and −9.80% and 36.56% and 57.19% and 55.33% and 41.86%
- PPI %, MEAN ([6]; 3 mg/kg intragastric): 42.65%
- PPI %, individual animal ([6]; 3 mg/kg intragastric): 25.79% and 45.06% and 35.48% and 4.10% and 30.23% and 62.54% and 62.41% and 75.59%
- PPI %, MEAN ([6]; 10 mg/kg intragastric): 47.32%
- PPI %, individual animal ([6]; 10 mg/kg intragastric): 69.36% and 54.29% and 71.90% and 24.73% and 32.57% and 37.52% and 33.19% and 55.00%
- ED50 [7]: 0.39 mg/kg
- Ki (adrenergic receptor): > 300 nM
- PPI %, MEAN (PPI in normal rats; 1 mg/kg intragastric): 63.11%
- PPI %, individual animal (PPI in normal rats; 1 mg/kg intragastric): 14.80% and 45.96% and 67.95% and 61.11% and 92.15% and 83.93% and 70.62% and 68.32%
- PPI %, MEAN (PPI in normal rats; 3 mg/kg intragastric): 60.54%
- PPI %, individual animal (PPI in normal rats; 3 mg/kg intragastric): 76.95% and 37.54% and 42.51% and 64.49% and 42.29% and 71.78% and 84.89% and 63.88%
- PPI %, MEAN (PPI in normal rats; 10 mg/kg intragastric): 57.00%
- PPI %, individual animal (PPI in normal rats; 10 mg/kg intragastric): 83.19% and 80.13% and 44.91% and 82.49% and 52.16% and −32.12% and 72.74% and 72.49%
